Test results: PubChem BioAssay (NCI)
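Test compounds were applied to cells in 96-well plates for 48 hours at 5 doses. TGI is the concentration that stops growth completely.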

Assays:
Test in all cases: growth of human tumour cells (NCI), 48 h
786-0 renal = test system: 786-0 renal
DU-145 prostate = test system: DU-145 prostate
HCC-2998 colon = test system: HCC-2998 colon
HL-60(TB) leukemia = test system: HL-60(TB) leukemia
K-562 leukemia = test system: K-562 leukemia
LOX IMVI melanoma = test system: LOX IMVI melanoma
MCF7 breast = test system: MCF7 breast
MOLT-4 leukemia = test system: MOLT-4 leukemia
NCI-H226 lung = test system: NCI-H226 lung
NCI-H522 lung = test system: NCI-H522 lung
OVCAR-5 ovarian = test system: OVCAR-5 ovarian
OVCAR-8 ovarian = test system: OVCAR-8 ovarian
SF-295 CNS = test system: SF-295 CNS
SK-MEL-2 melanoma = test system: SK-MEL-2 melanoma
SK-OV-3 ovarian = test system: SK-OV-3 ovarian
SNB-19 CNS = test system: SNB-19 CNS
SR leukemia = test system: SR leukemia
T-47D breast = test system: T-47D breast
TK-10 renal = test system: TK-10 renal

| SMILES | TGI (786-0 renal) [µM] | TGI (DU-145 prostate) [µM] | TGI (HCC-2998 colon) [µM] | TGI (HL-60(TB) leukemia) [µM] | TGI (K-562 leukemia) [µM] | TGI (LOX IMVI melanoma) [µM] | TGI (MCF7 breast) [µM] | TGI (MOLT-4 leukemia) [µM] | TGI (NCI-H226 lung) [µM] | TGI (NCI-H522 lung) [µM] | TGI (OVCAR-5 ovarian) [µM] | TGI (OVCAR-8 ovarian) [µM] | TGI (SF-295 CNS) [µM] | TGI (SK-MEL-2 melanoma) [µM] | TGI (SK-OV-3 ovarian) [µM] | TGI (SNB-19 CNS) [µM] | TGI (SR leukemia) [µM] | TGI (T-47D breast) [µM] | TGI (TK-10 renal) [µM] |
| --- | --- | --- | --- | --- | --- | --- | --- | --- | --- | --- | --- | --- | --- | --- | --- | --- | --- | --- | --- |
| C=C1CCCC(C)(C)C1CCC1(C)CCC(C(C)C(=O)OC)OO1 (stereo not given) | 0.76 | 8.63 | 11.5 | 9.16 | > 25 | 0.902 | > 25 | > 25 | > 25 | 12.6 | > 23.1 | > 19.8 | 10.2 | > 25 | 9.43 | > 18.1 | 9.78 | 11.7 | 7.72 |
| CN(C)CCCSc1nc2c(c(=N)n1-c1ccccc1)c(=S)n(-c1ccccc1)c(=S)n2-c1ccccc1 | 2.66 | 3.04 | 2.82 | 1.75 | 3.81 | 2.87 | > 100 | 3.28 | 28.4 | 3.42 | 24.5 | 3.2 | 10.6 | 4.11 | 6.86 | 8.14 | 1.07 | 4.62 | 3.09 |
| COC(=O)C(C)(C)[C@@H]1OC(=O)N(S(=O)(=O)c2c(C)cc(C)cc2C)[C@H]1C(C)C | > 100 | > 100 | > 100 | 84.5 | > 100 | > 100 | > 100 | > 100 | > 100 | > 100 | > 100 | > 100 | > 100 | > 100 | > 100 | > 100 | > 100 | > 100 | > 100 |
| NC(=O)c1ncn(C2OC(CO)C(O)C2O)c1NC=O (stereo not given) | > 100 | > 100 | > 100 | > 100 | > 100 | > 100 | > 100 | > 100 | > 100 | > 100 | > 100 | > 100 | > 100 | > 100 | > 100 | > 100 | > 100 | > 100 | > 100 |
| CC(=NNC(=S)Nc1cccc(C)c1)c1cccc(C(C)=NNC(=S)Nc2cccc(C)c2)n1 | 63.6 | > 100 | > 100 | 70.1 | > 100 | 85.3 | 77.7 | 61.6 | 95.1 | 57.9 | > 100 | 76.3 | 34 | 74 | > 100 | > 100 | 40.8 | > 100 | 61.5 |
| C=C(C)[C@@]1(O)CCCC[C@@H]1CC(Sc1ccccc1)Sc1ccccc1 | 39.9 | 30.1 | 32.4 | 78.4 | 44.4 | 31.2 | 53.9 | 32.5 | 32.1 | 26.5 | 30.7 | 38.6 | 32.8 | 30.1 | 39.6 | 38.3 | 34.8 | 29 | 30 |
| CN(C)CCCNc1ncnc2c1ncn2C1OC(CO)C(O)C1O (stereo not given) | > 100 | > 100 | > 100 | > 100 | > 100 | > 100 | > 100 | > 100 | > 100 | > 100 | > 100 | > 100 | > 100 | > 100 | > 100 | > 100 | > 100 | > 100 | > 100 |
| Cc1occc1C(=S)Nc1ccc(Cl)c(/C=N/OC(C)(C)C)c1 | 49.9 | 48.7 | 34.2 | 51.5 | > 100 | 29.2 | 42.9 | 31.8 | 32.4 | 24.8 | 31.3 | 38.8 | 28.5 | 39.5 | 58.7 | 40.6 | 35.6 | 42.6 | 49.8 |
| COC(=O)C1=C(OC(=O)/C(=C/c2ccccc2)c2ccc(Cl)cc2)C(C(=O)OC)[C@@]2(O)[C@@H](C(=O)OC)[C@H](C)C[C@@H]1[C@@H]2C(=O)OC (stereo not given in full) | > 100 | > 100 | > 100 | > 100 | > 100 | > 100 | > 100 | > 100 | > 100 | > 100 | > 100 | > 100 | > 100 | > 100 | > 100 | > 100 | > 100 | > 100 | > 100 |
| COc1ccc(OC)c(C2CCc3c(cnc4nc(N)nc(N)c34)C2)c1 (stereo not given) | 18.3 | 28.4 | 44.6 | 25.9 | 16.1 | 15.5 | 24.3 | 22 | 54.8 | 21.7 | 22.2 | 21.6 | 23.3 | 31.8 | 31.2 | 21.5 | 20.4 | 39.8 | 28.7 |
